According to ChEMBL document CHEMBL5512613, “Design and synthesis of novel 3-amino-5-phenylpyrazole derivatives as tubulin polymerization inhibitors targeting the colchicine-binding site” (Eur J Med Chem, 2024):
Activity calls are given as the source filed them. The calls are words filed in the database; no cut-off is given here.

Columns and labels:
[1] = system: MCF7; test: Induction of cell cycle arrest in human MCF7 cells assessed as proportion of cells at G1 phase at 6.25 nM incubated for 24 hrs by PI staining based flow cytometry (reference value: 64.5%); type: functional
[2] = system: MCF7; test: Induction of cell cycle arrest in human MCF7 cells assessed as proportion of cells at G1 phase at 25 nM incubated for 6 hrs by PI staining based flow cytometry (reference value: 64.5%); type: functional
[3] = system: HUVEC; test: Anti-vascular activity in human HUVEC cells assessed as reduction in number of loops formed at 6.25 to 50 nM incubated for 6 hrs by Matrigel based inverted fluorescence microscopy; type: functional, cell-based; conditions: dose 6.25-50 nM
[4] = system: MDA-MB-231; test: Antiproliferative activity against human MDA-MB-231 cells assessed as inhibition of cell growth incubated for 48 hrs by MTT assay; type: functional, cell-based; conditions: MDA-MB-231, 48 h
[5] = biological target: Tubulin beta (Homo sapiens) (UniProt P68371+Q9H4B7+Q13509+P04350+Q3ZCM7+P07437+Q13885+Q9BVA1+Q9BUF5+A6NNZ2); test: Binding affinity to beta-tubulin (unknown origin) assessed as decrease in beta-tubulin/EBI adduct formation at 0.2 to 25 uM incubated for 2 hrs followed by incubation with EBI for 1.5 hrs by EBI competition based western blot analysis; type: protein assay; conditions: dose 0.2-25 µM, time 3.5 hrs
[6] = system: MCF7; test: Induction of cell cycle arrest in human MCF7 cells assessed as proportion of cells at G1 phase at 25 nM incubated for 24 hrs by PI staining based flow cytometry (reference value: 64.5%); type: functional
[7] = system: MCF7; test: Antitumor activity against human MCF7 cells xenografted in BALB/c mouse assessed as inhibition of tumor growth by measuring decrease in tumor weight at 10 mg/kg, ip administered every 3 days for 21 days; type: functional; conditions: MCF7, 504 h, time 21 day, read-out: TGI
[8] = system: MCF7; test: Induction of cell cycle arrest in human MCF7 cells assessed as increase in Cdc25c protein expression at 6.25 to 50 nM incubated for 24 hrs by western blot analysis; type: functional, cell-based; conditions: dose 6.25-50 nM
[9] = system: MCF7; test: Induction of cell cycle arrest in human MCF7 cells assessed as increase in p21 protein expression at 6.25 to 50 nM incubated for 24 hrs by western blot analysis; type: functional, cell-based; conditions: dose 6.25-50 nM
[10] = system: HT-29; test: Antiproliferative activity against human HT-29 cells assessed as inhibition of cell growth incubated for 48 hrs by MTT assay; type: functional, cell-based; conditions: HT-29, 48 h
[11] = system: MCF7; test: Induction of cell cycle arrest in human MCF7 cells assessed as proportion of cells at G1 phase at 25 nM incubated for 12 hrs by PI staining based flow cytometry (reference value: 64.5%); type: functional
[12] = system: MCF7; test: Induction of cell cycle arrest in human MCF7 cells assessed as proportion of cells at G2 phase at 6.25 nM incubated for 24 hrs by PI staining based flow cytometry (reference value: 14.4%); type: functional

IC50 [4]: 40 nM
Activity [5]: Active
IC50 [10]: 60 nM
SMILES: COc1cc(C(=O)n2nc(N)cc2-c2ccc(C)cc2)cc(OC)c1OC
Activity [1]: 53.3%
Activity [2]: 31.3%
Activity [3]: Active
Activity [6]: 7.65%
inhibition in vivo at 10 mg/kg [7]: 36.1%
Activity [8]: Active
Activity [9]: Active
Activity [11]: 14.3%
Activity [12]: 28.3%
